We go through seven compounds from ChEMBL document CHEMBL3352551, “Synthesis and biological evaluation of novel allosteric enhancers of the A1 adenosine receptor based on 2-amino-3-(4'-chlorobenzoyl)-4-substituted-5-arylethynyl thiophene” (J Med Chem, 2014).

Test [1] concerns the target T1, Adenosine receptor A1 (Homo sapiens) (UniProt P30542).
T1 sequence (whole entry): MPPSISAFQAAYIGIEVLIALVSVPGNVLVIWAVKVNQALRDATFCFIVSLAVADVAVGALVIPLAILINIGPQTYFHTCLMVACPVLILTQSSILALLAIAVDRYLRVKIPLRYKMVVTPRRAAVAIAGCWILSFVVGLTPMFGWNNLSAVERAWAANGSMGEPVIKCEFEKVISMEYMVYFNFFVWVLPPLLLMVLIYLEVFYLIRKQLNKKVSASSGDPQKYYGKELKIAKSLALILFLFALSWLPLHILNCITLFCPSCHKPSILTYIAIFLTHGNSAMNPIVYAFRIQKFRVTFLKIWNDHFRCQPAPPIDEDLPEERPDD
Description: Allosteric enhancer activity at human adenosine A1 receptor expressed in CHO cell membranes assessed as shift in [3H]CCPA Bmax level at 10 uM by saturation binding assay.

Test [2] deals with T1, Adenosine receptor A1 (Homo sapiens). As to the kind of experiment: Allosteric enhancer activity at human adenosine A1 receptor expressed in CHO cell membranes assessed as shift in CCPA binding Ki level at 10 uM by [3H]DPCPX competition binding assay.
For test [3], the target named is T2, Adenosine receptor A3 (Homo sapiens) (UniProt P0DMS8).
T2 sequence (whole entry): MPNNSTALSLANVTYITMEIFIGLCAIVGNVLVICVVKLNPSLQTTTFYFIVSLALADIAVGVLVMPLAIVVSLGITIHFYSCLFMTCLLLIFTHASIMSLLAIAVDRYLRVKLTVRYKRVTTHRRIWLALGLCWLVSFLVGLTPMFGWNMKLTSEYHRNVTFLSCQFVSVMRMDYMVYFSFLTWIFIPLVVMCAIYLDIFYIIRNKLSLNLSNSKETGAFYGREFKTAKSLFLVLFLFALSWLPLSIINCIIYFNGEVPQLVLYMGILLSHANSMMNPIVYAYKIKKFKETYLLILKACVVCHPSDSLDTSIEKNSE
As to the kind of experiment: Displacement of [3H]MRE-3008-F20 from human adenosine 3 receptor expressed in CHO cell membranes at 10 uM. On the technique in general: Loss of bound radioactivity is the signal in a displacement assay; it reports binding, not function.

Test [4] has as its target T1, Adenosine receptor A1 (Homo sapiens). As to the kind of experiment: Allosteric enhancer activity at human adenosine A1 receptor expressed in CHO cells assessed as inhibition of forskolin-induced cAMP production at 10 uM. The format is functional, cell-based.
The target is the same in test [5]. Description: Allosteric enhancer activity at human adenosine A1 receptor expressed in CHO cells assessed as inhibition of forskolin-induced cAMP production at 100 nM in presence of 1 pM CCPA. The format is functional, cell-based.
For test [6] the target is unchanged. As to the kind of experiment: Displacement of [3H]DPCPX from human adenosine A1 receptor expressed in CHO cell membranes at 10 uM.
Test [7] has the same target. Description: Allosteric enhancer activity at human adenosine A1 receptor expressed in CHO cell membranes assessed as shift in [3H]CCPA Kd level at 10 uM by saturation binding assay.
Test [8] addresses Adenosine receptor A2a (Homo sapiens) (UniProt P29274). As to the kind of experiment: Displacement of [3H]ZM241385 from human adenosine A2A receptor expressed in CHO cell membranes at 10 uM.
In test [9] the target is T1, Adenosine receptor A1 (Homo sapiens). Description: Allosteric enhancer activity at human adenosine A1 receptor expressed in CHO cell membranes assessed as slowing of [3H]NECA dissociation rate level at 1 uM. The format is cell-based.
For test [10] the target is unchanged. As to the kind of experiment: Allosteric enhancer activity at human adenosine A1 receptor expressed in CHO cell membranes assessed as shift in [3H}NECA binding affinity level at 1 uM.
Test [11] has the same target. As to the kind of experiment: Allosteric enhancer activity at human adenosine A1 receptor expressed in CHO cell membranes assessed as [3H]NECA association rate at 1 uM (reference value: 0.0183 +/- 0.0008 /nM/min). The format is cell-based.
Test [12] has the same target. Description: Allosteric enhancer activity at human adenosine A1 receptor expressed in CHO cell membranes assessed as [3H]NECA dissociation rate at 1 uM (reference value: 0.0159 +/- 0.0004 /min). In kind it is cell-based.
For test [13], the target named is T3, Adenosine receptor A1 (Rattus norvegicus, UniProt P25099).
T3 sequence (P25099 whole entry): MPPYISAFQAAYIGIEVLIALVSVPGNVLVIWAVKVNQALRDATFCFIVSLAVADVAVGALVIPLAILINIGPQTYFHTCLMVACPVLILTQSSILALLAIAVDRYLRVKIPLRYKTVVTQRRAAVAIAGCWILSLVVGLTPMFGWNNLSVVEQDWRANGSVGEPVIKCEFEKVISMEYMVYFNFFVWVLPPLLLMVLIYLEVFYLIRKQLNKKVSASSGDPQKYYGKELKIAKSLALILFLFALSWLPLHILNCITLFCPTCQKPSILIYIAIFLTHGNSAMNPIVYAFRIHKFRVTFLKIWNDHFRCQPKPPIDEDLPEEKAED
As to the kind of experiment: Displacement of [3H]DPCPX from adenosine A1 receptor in rat membranes. In kind it is cell membranes.

By inhibition is commonly meant the share of the control response that was lost under treatment. As usually defined, the Ki is a measure of affinity in units of concentration, obtained from inhibition or displacement. A low value points to tighter binding.

Each structure is given as a SMILES string. Activity calls are given as the source filed them. The calls are words filed in the database; no cut-off is given here.

Adenosine receptor A2a (Homo sapiens), sequence (P29274 whole entry): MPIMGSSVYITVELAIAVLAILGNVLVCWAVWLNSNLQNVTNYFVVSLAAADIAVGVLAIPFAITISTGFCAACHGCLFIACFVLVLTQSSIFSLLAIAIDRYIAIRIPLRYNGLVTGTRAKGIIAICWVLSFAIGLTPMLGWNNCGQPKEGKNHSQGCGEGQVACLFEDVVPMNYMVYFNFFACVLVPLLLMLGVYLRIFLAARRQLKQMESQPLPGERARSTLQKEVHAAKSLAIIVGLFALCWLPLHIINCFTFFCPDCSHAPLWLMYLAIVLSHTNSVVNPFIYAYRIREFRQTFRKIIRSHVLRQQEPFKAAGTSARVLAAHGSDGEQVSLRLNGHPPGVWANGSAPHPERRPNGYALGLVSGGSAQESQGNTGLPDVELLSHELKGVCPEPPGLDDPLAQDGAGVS

`COc1ccc(C#Cc2sc(N)c(C(=O)c3ccc(Cl)cc3)c2CC(C)(C)C)cc1`: the fold change (FC) in test [1] was determined as 7.4; in [2], 8.2. For the same compound, the inhibition in test [3] was below 15%; in [4], 71%; in test [5], 79%; in test [6] it was below 15%; in test [8] it was below 15%. The result in test [7] was inactive.
For the compound `CCCCCC#Cc1sc(N)c(C(=O)c2ccc(Cl)cc2)c1CC(C)(C)C`, the figures for the fold change (FC) in test [1] and in test [2] were 6.3 and 4.1, respectively. In addition, the inhibition was below 15% in [3]; 66% in test [4]; 69% in [5]; below 15% in [6]; below 15% in test [8]. Besides, in test [7], the result was inactive.
Regarding `CC(C)(C)Cc1c(C#Cc2ccccc2)sc(N)c1C(=O)c1ccc(Cl)cc1`, the fold change (FC) in test [9] was 2.1; in test [1], 9.5; in test [2], 9.9; in [10] it was 1.9. Further, the inhibition was below 15% in test [3]; 75% in test [4]; 77% in test [5]; below 15% in test [6]; below 15% in test [8]. Besides, the K in test [11] was 273000 M⁻¹ s⁻¹; in [12] it was 0.0076 min⁻¹. In addition, the result in test [7] was inactive.
In the case of `Cc1sc(N)c(C(=O)c2cccc(C(F)(F)F)c2)c1C`, the fold change (FC) was found to be 1.3 in test [1], 1.3 in test [2] and 1.2 in test [10]. Moreover, the K was found to be 318000 M⁻¹ s⁻¹ in test [11] and 0.0143 min⁻¹ in test [12]. The inhibition entry in [6] and in test [8] was “inactive” in each case. In addition, in [7], the result was inactive. Also, in test [13], the Ki was 11 µM.
On to `Nc1sc(C#Cc2ccccc2)c(CN2CCN(c3ccc(Cl)c(C(F)(F)F)c3)CC2)c1C(=O)c1ccc(Cl)cc1`, for which the fold change (FC) in [1] stood at 2.7; in test [2], 2.4. Also, the inhibition is below 15% in [3]; 30% in [4]; 36% in test [5]; below 15% in test [6]; below 15% in test [8].
In the case of `Nc1sc(C#Cc2ccccc2)c(CN(C2CCCCC2)C2CCCCC2)c1C(=O)c1ccc(Cl)cc1`, the values for the fold change (FC) in [1] and in test [2] were 1.2 and 3.7, respectively. Besides, the inhibition in [3] is below 15%; in test [4] it was 10%; in test [5], 19%; in test [6], below 15%; in test [8], below 15%.
`Cc1c(CCc2ccccc2)sc(N)c1C(=O)c1ccc(Cl)cc1`: the values for the fold change (FC) in test [1] and in test [2] were 2.2 and 1.6, respectively. For the same compound, the inhibition in test [3] was below 15%; in [4] it was 28%; in test [5], 27%; in [6], below 15%; in test [8] it was below 15%.
